Results published in patent US10273208B2, “Screening methods for the binding affinity of chemical entities to biological molecules and NEDD4-1 inhibitors identified by the screening methods” (Northwestern University, priority 2014, dated 2019).

experiment: NMR rate studies: pseudo-first order reaction with N-acetylcysteine methyl ester; type: physicochemical; conditions: electrophile 10 mM, N-acetyl cysteine methyl ester 78 mM, 2:1 deuterated PBS:DMSO-d6, pD 8, NMR
Text: We further validated the utility of electrophile 3 as a thiol-reactive tether by making a library of one hundred structurally diverse drug-like fragments 6-105 containing this electrophile. The library was constructed with an HBTU amide coupling with commercially available carboxylic acid fragments (FIG. 2A). The acids were selected with “rule of three” criteria^15 and a subsequent diversity analysis. We measured the reaction rates for the first fifty fragments to confirm that this library would have balanced cysteine reactivity and could be used for irreversible tethering (FIG. 2B).
N-Acetyl cysteine methyl ester was dissolved in 2:1 deuterated PBS:DMSO-d6 (78 mM) with 10 mM CH2Cl2 as an internal standard. The electrophile (10 mM) was then added immediately prior to acquiring spectra. H1 spectra were taken every 30 s for 30 min (or every 4 s for 5 min for highly reactive compounds 1c and 2a-c). The integrals of the vinyl peaks were used to determine the concentration of the electrophile over time. The natural logarithm of the concentration of the electrophile versus time was then plotted using GraphPad Prism software. The linear slope of this plot was used to determine the pseudofirst order rate constant. Deuterated PBS recipe: 20 mM Na3PO4, 50 mM NaCl in D2O was adjusted to pD 8 with DC1 solution.

| SMILES | k pseudo-first order [s⁻¹] |
| --- | --- |
| COC(=O)/C=C/CNC(=O)c1c(C)[nH]c2ccc(OC)cc12 [Compound 12, Methyl(E)-4-(5-methoxy-2-methyl-1H-indole-3-carboxamido)but-2-enoate] | 0.000654 |
| COC(=O)/C=C/CNC(=O)c1c[nH]c2ccc(OC)cc12 [Compound 13, Methyl(E)-4-(5-methoxy-1H-indole-3-carboxamido)but-2-enoate] | 0.0003582 |
| CCn1c(C)c(C(=O)NC/C=C/C(=O)OC)c2cc(OC)ccc21 [Compound 14, Methyl(E)-4-(1-ethyl-5-methoxy-2-methyl-1H-indole-3-carboxamido)but-2-enoate] | 0.0005016 |
| COC(=O)/C=C/CNC(=O)C1CC(=O)N(C)c2ccccc21 (centres unmarked) [Compound 15] | 0.0007733 |
| COC(=O)/C=C/CNC(=O)C1Cc2ccccc2CN1C (centres unmarked) [Compound 16] | 0.0006414 |
| COC(=O)/C=C/CNC(=O)c1sc(C(C)C)nc1C [Compound 17] | 0.0006156 |
| CCC(C(=O)NC/C=C/C(=O)OC)N1Cc2ccccc2C1=O (centres unmarked) [Compound 18] | 0.0006093 |
| COC(=O)/C=C/CNC(=O)CN(C)C1CCCC1 [Compound 20] | 0.0005603 |
| COC(=O)/C=C/CNC(=O)Cn1ncc2ccccc21 [Compound 21] | 0.0003327 |
| COC(=O)/C=C/CNC(=O)c1ccc(-c2ccc(C)o2)cc1 [Compound 23] | 0.0004979 |
| COC(=O)/C=C/CNC(=O)c1cnn(-c2ccccc2OC)c1 [Compound 24] | 0.0005202 |
| COC(=O)/C=C/CNC(=O)Cc1ccncc1 [Compound 25] | 0.0005202 |
| COC(=O)/C=C/CNC(=O)C1COc2c(cccc2OC)C1 (centres unmarked) [Compound 26] | 0.0006107 |
| COC(=O)/C=C/CNC(=O)c1cc(C)nc2ccc(C)cc12 [Compound 27] | 0.0006665 |
| COC(=O)/C=C/CNC(=O)c1ccc(OC)cc1 [Compound 28] | 0.00042 |
| COC(=O)/C=C/CNC(=O)c1ccnc(C)c1 [Compound 29] | 0.0004038 |

| SMILES | k pseudo-first order [s⁻¹] |
| --- | --- |
| COC(=O)/C=C/CNC(=O)c1ccc(CN2CCc3ccccc3C2)cc1 [Compound 30] | 0.0006579 |
| COC(=O)/C=C/CNC(=O)[C@@H]1CCCN1C(=O)C1CC1 [Compound 31] | 0.0005193 |
| COC(=O)/C=C/CNC(=O)c1cccc(Cl)n1 [Compound 33] | 0.0006348 |
| COC(=O)/C=C/CNC(=O)c1ccccc1Br [Compound 34] | 0.0007717 |
| COC(=O)/C=C/CNC(=O)c1cc(Br)ccc1N [Compound 35] | 0.0005755 |
| COC(=O)/C=C/CNC(=O)C(CO)c1ccccc1 (centres unmarked) [Compound 36] | 0.00034 |
| COC(=O)/C=C/CNC(=O)Cn1nc(C)cc1C [Compound 37] | 0.0004493 |
| COC(=O)/C=C/CNC(=O)c1cc(Br)ccc1OC [Compound 38] | 0.0007728 |
| CCC(C(=O)NC/C=C/C(=O)OC)n1cccn1 (centres unmarked) [Compound 39] | 0.000651 |
| C=CCN1CC(C(=O)NC/C=C/C(=O)OC)CC1=O (centres unmarked) [Compound 40] | 0.0004793 |
| COC(=O)/C=C/CNC(=O)c1c(C)[nH]c2c1C(=O)CCC2 [Compound 41] | 0.0005635 |
| COC(=O)/C=C/CNC(=O)Cc1c(C)nn(-c2ccccc2)c1C [Compound 42] | 0.0005281 |
| COC(=O)/C=C/CNC(=O)c1c(C)n(C)c2ccc(OC)cc12 [Compound 43] | 0.0007616 |
| COC(=O)/C=C/CNC(=O)c1cc2c([nH]c1=O)CCCC2 [Compound 44] | 0.0006746 |
| COC(=O)/C=C/CNC(=O)c1c(C)nc2cc(C)ccn12 [Compound 45] | 0.0003961 |
| CCn1nc(C(C)C)cc1C(=O)NC/C=C/C(=O)OC [Compound 46] | 0.0007806 |
